Tests used:
[1] = In vitro human liver microsomal stability assay; type: in vitro ADME; settings: human liver microsomes 0.5 mg per mL protein, NADPH-generating system, 1 μM test compound, 37±1° C., 0-60 min; for half-life at 1 μM: degradation half-life; for CLint scaled at 1 μM: read-out: Clearance %
Procedure: In Vitro Liver Microsomal Stability Assay
Human liver microsomal stability assays were conducted at 0.5 mg per mL liver microsome protein with an NADPH-generating system consisting of NADP (1 mM, pH 7.4), […] (5 mM, pH 7.4), and glucose-6-phosphate dehydrogenase (1 unit/mL).
Test compounds were prepared as solutions in DMSO and added to the assay mixture (1 μM, final concentration in incubation) to be incubated at 37±1° C. Reactions were initiated with the addition of cofactor and were stopped at 0, 15, 30, 45, and 60 min after cofactor addition with stop reagent (0.2 mL acetonitrile). Samples were centrifuged (920×g for 10 min at 10° C.) in 96-well plates. Supernatant fractions were analyzed by LC-MS/MS to determine the percent remaining and estimate the degradation half-life of the test compounds.

[2] = test system: patients with QT-3 (LQT3) syndrome; settings: cited from earlier work

| Compound | half-life at 1 μM [1] | CLint scaled at 1 μM [1] | effect on QTc interval [2] |
| --- | --- | --- | --- |
| 4-(pyrimidin-2-ylmethyl)-7-[4-(trifluoromethoxy)phenyl]-2,3,4,5-tetrahydro-1,4-benzoxazepin-5-one [Example 1] |  |  | shortening of the QTc interval |
| O=C1c2cc(-c3ccc(OC(F)(F)F)cc3)ccc2OCCN1Cc1ncccn1 [Example 1, 4-(pyrimidin-2-ylmethyl)-7-[4-(trifluoromethoxy)phenyl]-2,3,4,5-tetrahydro-1,4-benzoxazepin-5-one, reference compound] | 2.36 h | 0.737 L/h/kg |  |
| [2H]C1([2H])CN(Cc2ncccn2)C(=O)c2cc(-c3ccc(OC(F)(F)F)cc3)ccc2O1 [Example 3, 4-(pyrimidin-2-ylmethyl)-7-[4-(trifluoromethoxy)phenyl]-2,3,4,5-tetrahydro(2,2-d2)-1,4-benzoxazepin-5-one] | 4.62 h | 0.376 L/h/kg |  |
| [2H]C([2H])(c1ncccn1)N1CCOc2ccc(-c3ccc(OC(F)(F)F)cc3)cc2C1=O [Example 2, 4-(pyrimidin-2-ylmethyl-d2)-7-(4-(trifluoromethoxy)phenyl)-3,4-dihydrobenzo[f][1,4]oxazepin-5(2H)-one] | 9.52 h | 0.182 L/h/kg |  |

Further lines, with some results ahead:

| half-life at 1 μM [1] | CLint scaled at 1 μM [1] | Compound | effect on QTc interval [2] |
| --- | --- | --- | --- |
| 2.32 h | 0.749 L/h/kg | [2H]c1c(-c2ccc(OC(F)(F)F)cc2)cc2c(c1[2H])OCCN(Cc1ncccn1)C2=O [Example 7, 4-(pyrimidin-2-ylmethyl)-7-[4-(trifluoromethoxy)phenyl]-2,3,4,5-tetrahydro(8,9-d2)-1,4-benzoxazepin-5-one] |  |
| 1.51 h | 1.15 L/h/kg | [2H]C([2H])(c1ncccn1)N1C(=O)c2cc(-c3ccc(OC(F)(F)F)cc3)ccc2OC([2H])([2H])C1([2H])[2H] [Example 6, 4-[pyrimidin-2-yl(d2)methyl]-7-[4-(trifluoromethoxy)phenyl]-2,3,4,5-tetrahydro(2,2,3,3-d4)-1,4-benzoxazepin-5-one] |  |
| 1.35 h | 1.29 L/h/kg | [2H]C1([2H])Oc2ccc(-c3ccc(OC(F)(F)F)cc3)cc2C(=O)N(Cc2ncccn2)C1([2H])[2H] [Example 5, 4-(pyrimidin-2-ylmethyl)-7-[4-(trifluoromethoxy)phenyl]-2,3,4,5-tetrahydro(2,2,3,3-d4)-1,4-benzoxazepin-5-one] |  |
| 2.01 h | 0.863 L/h/kg | [2H]C1([2H])COc2ccc(-c3ccc(OC(F)(F)F)cc3)cc2C(=O)N1Cc1ncccn1 [Example 4, 4-(pyrimidin-2-ylmethyl)-7-(4-(trifluoromethoxy)phenyl)-3,4-dihydrobenzo[f][1,4]oxazepin-5(2H)-one-3,3-d2] |  |
